US20030206895A1, “Antioxidant composition comprising propionyl L-carnitine and a flavonoid against throm-bosis and atherosclerosis” (priority 1998, published 2003)

Columns and labels:
[1] = system: hypercholesterolaemic rabbits; assay: Antiatherosclerotic activity tests: plasma lipoprotein concentrations; format: in vivo, New Zealand rabbits; conditions: thirty days, carnitine(s) 400 mg/kg, quercetin 50 mg/kg
Text: (§1) In these tests, experimental atherosclerosis was induced in rabbits by administering 0.5% of cholesterol by weight together with the standard diet.
After thirty days' treatment, a blood sample was taken from the central artery of the ear in each animal and used to assay the lipoproteins present according to the method described by Hatch (Hatch F. T., Advan. Lipid Res., 6, 1, 1968).

[2] = system: oedema induced in the rat paw by carrageenin; assay: Anti-inflammatory activity tests: carrageenin-induced oedema of the rat paw; format: in vivo; conditions: for anti-oedema / anti-inflammatory effect (in words): rat paw, carrageenin
Method: To this end, 0.1 cc of a 1% carrageenin solution (Sigma, St, Louis, USA) were injected in the subplantar zone of the rat paw. The volume of oedema of the paw was measured by means of a mercury plethysmograph at intervals of one hour over the four-hour period following injection of carrageenin. One hour prior to injection, of carrageenin the animals received oral administrations either of propionyl L-carnitine (300 mg/kg and 150 mg/kg), or carnitine mixture (acetyl L-carnitine, propionyl L-carnitine, isovaleryl L-carnitine; 300 mg/kg and 150 mg/kg), or quercetin (100 mg/kg and 50 mg/kg), or various combinations of these compounds.

[3] = system: mice treated with mitomycin C; assay: Tests on leukopenia induced by mitomycin C; format: in vivo; conditions: for Number of leukocytes after 5 days / Number of leukocytes after 10 days / Number of leukocytes after 12 days / protective effect against leukopenia and toxicity of mitomycin C (in words): mice; for Number of leukocytes after 5 days / Number of leukocytes after 10 days / Number of leukocytes after 12 days / % Mice surviving after 5 days / % Mice surviving after 10 days / % Mice surviving after 12 days: mitomycin C 50 μg/mouse i.p. five days, oral carnitine(s) 300 mg/kg, quercetin 100 mg/kg; for protective effect against leukopenia and toxicity of mitomycin C (in words): oral
Method: To evaluate the immunostimulatory effect of the combination of propionyl L-carnitine or carnitine mixture plus quercetin, the effect of these products was evaluated on the toxic and immunosuppressive activity induced by mitomycin C.

[4] = system: platelet aggregation induced by collagen; assay: Platelet aggregation tests (collagen-induced, Born photometric method); format: cell-based, human (healthy volunteers); conditions: 10 minutes' incubation
Method: Blood samples taken from healthy volunteers were used for these tests.
The blood samples were treated with sodium citrate and centrifuged for 8 minutes at 100 rpm. The number of platelets was counted and brought to a fixed level of […] by adding platelet poor plasma (PPP) where necessary.
Platelet aggregation was induced using collagen (2.5 μg/ml, 5 μg/ml) as the aggregating agent and determined photometrically according to the method described by Born (Born G. V. R., Nature, 194, 927, 1962).
Platelet aggregation was measured in baseline conditions and after 10 minutes' incubation with quercetin or propionyl L-carnitine or with a combination of quercetin and propionyl L-carnitine in the same amounts.
The propionyl L-carnitine doses were 10 μg and 20 μg/ml, while the quercetin doses were 0.1 μg and 0.25 μg/ml.

[5] = system: hypercholesterolaemic rabbits; assay: Antiatherosclerotic activity tests: liver total cholesterol and triglycerides; format: in vivo, New Zealand rabbits; conditions: thirty days, carnitine(s) 400 mg/kg, quercetin 50 mg/kg
Method: The liver was then removed from each animal and used to assay total cholesterol and triglycerides according to the method of Dehoff (Dehoff J. L., Clin. Chem., 24, 433, 1978) and Levy (Levy A., Advances in Automated Analysis, 497-Thurman-Miami, 1972). Arteriosclerotic lesions at the level of the heart and aorta were assessed according to the Klurfield method ([…]. Med., 10, 35, 1979), grading them from I to IV according to the severity of the damage detected.

[6] = system: experimental atherosclerosis in rabbits; assay: Antiatherosclerotic activity tests: biochemical and histological parameters, arteriosclerotic lesions of heart and aorta; format: in vivo, New Zealand rabbits; conditions: rabbit, cholesterol-enriched diet, thirty days; carnitine(s) 400 mg/kg, quercetin 50 mg/kg
Method: as §1
The liver was then removed from each animal and used to assay total cholesterol and triglycerides according to the method of Dehoff (Dehoff J. L., Clin. Chem., 24, 433, 1978) and Levy (Levy A., Advances in Automated Analysis, 497—Thurman—Miami, 1972). Arteriosclerotic lesions at the level of the heart and aorta were assessed according to the Klurfield method (Klurfield D. M., J. Med., 10, 35, 1979), grading them from I to IV according to the severity of the damage detected.
The greatest degree of protective activity, however, is that achieved when carnitine and quercetin are administered in combination.

[7] = system: anaphylactic shock in guinea-pigs; assay: Anaphylactic shock tests (horse serum sensitisation); format: in vivo; conditions: oral; for Surviving/treated animals: carnitine(s) 300 mg/kg, quercetin 50 mg/kg
Method: These tests were performed using male albino guinea-pigs with a mean weight of 300 g; the animals received intraperitoneal injections of 1 cc of horse serum diluted 1:10.
After twenty-five days, intravenous injection of 1 cc of horse serum triggered anaphylactic shock with onset of bronchospasm and death of the animals. Five days before the shock-triggering injection, the sensitised animals were treated orally either with propionyl L-carnitine (300 mg/kg), or with carnitine mixture (300 mg/kg), or with quercetin (50 mg/kg), or with various combinations of these compounds.

[8] = Toxicology, single oral administration in the rat; conditions: up to 4 g/kg
[9] = rat, oral, carnitine(s) 150 mg/kg and/or quercetin 50 mg/kg
[10] = rat, oral, carnitine(s) 300 mg/kg and/or quercetin 100 mg/kg

Row | SMILES | Plasma HDL [1] [mg/dL] | Plasma LDL [1] [mg/dL] | Plasma VLDL [1] [mg/dL] | anti-oedema / anti-inflammatory effect (in words) [2] | % reduction of carrageenin-induced oedema after 1 h [2, 10] [%] | % reduction of carrageenin-induced oedema after 2 h [2, 10] [%] | % reduction of carrageenin-induced oedema after 3 h [2, 10] [%] | Number of leukocytes after 5 days [3] | Number of leukocytes after 10 days [3] | Number of leukocytes after 12 days [3] | protective effect against leukopenia and toxicity of mitomycin C (in words) [3] | % Mice surviving after 5 days [3] [%] | % Mice surviving after 10 days [3] [%] | % Mice surviving after 12 days [3] [%] | Liver triglycerides [5] [mg/g] | biochemical and histological parameters of experimentally induced atherosclerosis [6] | protection against death by anaphylactic shock (in words) [7] | Surviving/treated animals [7] | further results
1 | O=c1c(O)c(-c2ccc(O)c(O)c2)oc2cc(O)cc(O)c12 [Quercetin, quercetin] | 28.6 ± 3.8 | 298 ± 30.1 | 816 ± 37.5 | modest anti-oedema effect | 18 ± 1.2 | 22 ± 2.5 | 20 ± 19 | 5,600 ± 480 | 4,800 ± 410 | 2,800 ± 310 | modest | 70 | 30 | 30 | 130 ± 14.5 | good inhibitory activity | no protective effect | 3/10 | % reduction of carrageenin-induced oedema after 1 h [2, 9]: 8 ± 0.6%; % reduction of carrageenin-induced oedema after 2 h [2, 9]: 10 ± 0.2%; % reduction of carrageenin-induced oedema after 4 h [2, 10]: 18 ± 1.5%; reduction of collagen-induced platelet aggregation ([4]; quercetin 0.25 μg): 50%
2 | CCC(=O)O[C@H](CC(=O)[O-])C[N+](C)(C)C [Propionyl L-carnitine, propionyl L-carnitine] | 26.4 ± 3.9 | 380 ± 21.5 | 855 ± 32.5 | modest anti-oedema effect | 12 ± 0.1 | 10 ± 0.2 | 6 ± 0.5 | 6,000 ± 310 | 5,400 ± 280 | 2,100 ± 125 | modest | 60 | 45 | 30 | 165 ± 14.5 | capable of reducing | no protective effect | 2/10 | signs of toxicity [8]: without any signs of toxicity; modification of platelet aggregating action induced by collagen ([4]; propionyl L-carnitine 10 μg and 20 μg/ml): did not prove capable of modifying
